According to patent publication US10405547B2, “Substituted cyclic amides as herbicides” (FMC Corporation, priority 2015, dated 2019):

Assays:
Format in all cases: in vivo
[1] = tested on: pigweed (Amaranthus retroflexus); assay: Test A postemergence, pigweed; conditions: visual injury, 0 to 100 scale (0 no effect, 100 complete control), approximately 10 days
How it was run: (§1)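 Greenhouse test: compounds in solvent with surfactant sprayed onto loam–sand soil after planting (preemergence) or onto plants 2-10 cm at the one- to two-leaf stage (postemergence). Injury visually rated versus untreated controls after about 10 days on a 0-100 scale (100 = complete control).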

[2] = tested on: blackgrass (Alopecurus myosuroides); assay: Test A postemergence, blackgrass; conditions: visual injury, 0 to 100 scale (0 no effect, 100 complete control), approximately 10 days
How it was run: as §1

[3] = tested on: galium (catchweed bedstraw, Galium aparine); assay: Test A postemergence, galium; conditions: visual injury, 0 to 100 scale (0 no effect, 100 complete control), approximately 10 days
How it was run: as §1

[4] = tested on: barnyardgrass (Echinochloa crus-galli); assay: Test A postemergence, barnyardgrass; conditions: visual injury, 0 to 100 scale (0 no effect, 100 complete control), approximately 10 days
How it was run: as §1

[5] = tested on: foxtail, giant (Setaria faberii); assay: Test A postemergence, giant foxtail; conditions: visual injury, 0 to 100 scale (0 no effect, 100 complete control), approximately 10 days
How it was run: as §1

[6] = tested on: ragweed (common ragweed, Ambrosia elatior); assay: Test A postemergence, ragweed; conditions: visual injury, 0 to 100 scale (0 no effect, 100 complete control), approximately 10 days
How it was run: as §1

[7] = tested on: wheat (Triticum aestivum); assay: Test A postemergence, wheat; conditions: visual injury, 0 to 100 scale (0 no effect, 100 complete control), approximately 10 days
How it was run: as §1

[8] = tested on: ryegrass, Italian (Lolium multiflorum); assay: Test A preemergence, Italian ryegrass; conditions: 0 to 100 scale (0 no effect, 100 complete control)
How it was run: as §1

kochia (Kochia scoparia) [9] = assay: Test A postemergence, kochia; conditions: visual injury, 0 to 100 scale (0 no effect, 100 complete control), approximately 10 days
How it was run: as §1

[10] = tested on: ragweed (common ragweed, Ambrosia elatior); assay: Test A preemergence, ragweed; conditions: 0 to 100 scale (0 no effect, 100 complete control)
How it was run: as §1

[11] = tested on: barnyardgrass (Echinochloa crus-galli); assay: Test A preemergence, barnyardgrass; conditions: 0 to 100 scale (0 no effect, 100 complete control)
How it was run: as §1

corn (Zea mays) = assay: Test A postemergence, corn; conditions: visual injury, 0 to 100 scale (0 no effect, 100 complete control), approximately 10 days
How it was run: as §1

[12] = tested on: ryegrass, Italian (Lolium multiflorum); assay: Test A postemergence, Italian ryegrass; conditions: visual injury, 0 to 100 scale (0 no effect, 100 complete control), approximately 10 days
How it was run: as §1

kochia (Kochia scoparia) [13] = assay: Test A preemergence, kochia; conditions: 0 to 100 scale (0 no effect, 100 complete control)
How it was run: as §1

[14] = tested on: foxtail, giant (Setaria faberii); assay: Test A preemergence, giant foxtail; conditions: 0 to 100 scale (0 no effect, 100 complete control)
How it was run: as §1

[15] = tested on: pigweed (Amaranthus retroflexus); assay: Test A preemergence, pigweed; conditions: 0 to 100 scale (0 no effect, 100 complete control)
How it was run: as §1

Structure (SMILES)	Plant response rating, Pigweed ([1]; 125 g ai/ha)	Plant response rating, Pigweed ([1]; 500 g ai/ha)	Plant response rating, Blackgrass ([2]; 125 g ai/ha)	Plant response rating, Blackgrass ([2]; 500 g ai/ha)	Plant response rating, Galium ([3]; 125 g ai/ha)	Plant response rating, Galium ([3]; 500 g ai/ha)	Plant response rating, Barnyardgrass ([4]; 125 g ai/ha)	Plant response rating, Barnyardgrass ([4]; 500 g ai/ha)	Plant response rating, Foxtail, Giant ([5]; 125 g ai/ha)	Plant response rating, Foxtail, Giant ([5]; 500 g ai/ha)	Plant response rating, Ragweed ([6]; 125 g ai/ha)	Plant response rating, Ragweed ([6]; 500 g ai/ha)	Plant response rating, Wheat ([7]; 125 g ai/ha)	Plant response rating, Wheat ([7]; 500 g ai/ha)	Plant response rating, Ryegrass, Italian ([8]; 125 g ai/ha)	Plant response rating, Ryegrass, Italian ([8]; 500 g ai/ha)	Plant response rating, Kochia (kochia (Kochia scoparia) [9]; 125 g ai/ha)	Plant response rating, Kochia (kochia (Kochia scoparia) [9]; 500 g ai/ha)	Plant response rating, Ragweed ([10]; 125 g ai/ha)	Plant response rating, Ragweed ([10]; 500 g ai/ha)	also measured
CC1(COc2cccc(C3CNC(=O)C3C(=O)Nc3cccc(F)c3F)c2)COC1 (centres unmarked) [Compound 13]	0	0	0	20	0	40	0	60	40	70	0	0	0	0	0	0	0	20	0	0	Plant response rating, Barnyardgrass ([11]; 125 g ai/ha): 0; Plant response rating, Barnyardgrass ([11]; 500 g ai/ha): 80; Plant response rating, Corn (corn (Zea mays); 125 g ai/ha): 0; Plant response rating, Corn (corn (Zea mays); 500 g ai/ha): 0; Plant response rating, Ryegrass, Italian ([12]; 125 g ai/ha): 0; Plant response rating, Ryegrass, Italian ([12]; 500 g ai/ha): 30; Plant response rating, Kochia (kochia (Kochia scoparia) [13]; 125 g ai/ha): 0; Plant response rating, Kochia (kochia (Kochia scoparia) [13]; 500 g ai/ha): 0; Plant response rating, Foxtail, Giant ([14]; 125 g ai/ha): 80; Plant response rating, Foxtail, Giant ([14]; 500 g ai/ha): 90; Plant response rating, Pigweed ([15]; 125 g ai/ha): 0; Plant response rating, Pigweed ([15]; 500 g ai/ha): 0
O=C1NCC(c2cccc(COc3ccccc3)c2)C1C(=O)Nc1ccc(F)c(F)c1F (centres unmarked) [Compound 17]	0	0	0	0	50	30	30	40	30	40	0	0	0	0	0	0	0	0	0	0	Plant response rating, Barnyardgrass ([11]; 125 g ai/ha): 20; Plant response rating, Barnyardgrass ([11]; 500 g ai/ha): 70; Plant response rating, Corn (corn (Zea mays); 125 g ai/ha): 0; Plant response rating, Corn (corn (Zea mays); 500 g ai/ha): 0; Plant response rating, Ryegrass, Italian ([12]; 125 g ai/ha): 0; Plant response rating, Ryegrass, Italian ([12]; 500 g ai/ha): 0; Plant response rating, Kochia (kochia (Kochia scoparia) [13]; 125 g ai/ha): 0; Plant response rating, Kochia (kochia (Kochia scoparia) [13]; 500 g ai/ha): 30; Plant response rating, Foxtail, Giant ([14]; 125 g ai/ha): 50; Plant response rating, Foxtail, Giant ([14]; 500 g ai/ha): 80; Plant response rating, Pigweed ([15]; 125 g ai/ha): 0; Plant response rating, Pigweed ([15]; 500 g ai/ha): 0
O=C1NCC(c2cccc(COc3ccccc3)c2)C1C(=O)Nc1ccc(F)cc1F (centres unmarked) [Compound 20]	0	0	0	0	0	0	40	70	40	60	0	0	0	0	0	0	0	0	0	0	Plant response rating, Barnyardgrass ([11]; 125 g ai/ha): 20; Plant response rating, Barnyardgrass ([11]; 500 g ai/ha): 70; Plant response rating, Corn (corn (Zea mays); 125 g ai/ha): 0; Plant response rating, Corn (corn (Zea mays); 500 g ai/ha): 0; Plant response rating, Ryegrass, Italian ([12]; 125 g ai/ha): 0; Plant response rating, Ryegrass, Italian ([12]; 500 g ai/ha): 0; Plant response rating, Kochia (kochia (Kochia scoparia) [13]; 125 g ai/ha): 0; Plant response rating, Kochia (kochia (Kochia scoparia) [13]; 500 g ai/ha): 30; Plant response rating, Foxtail, Giant ([14]; 125 g ai/ha): 30; Plant response rating, Foxtail, Giant ([14]; 500 g ai/ha): 80; Plant response rating, Pigweed ([15]; 125 g ai/ha): 0; Plant response rating, Pigweed ([15]; 500 g ai/ha): 0
O=C1NCC(c2cccc(COc3ccccc3)c2)C1C(=O)Nc1ccccc1Cl (centres unmarked) [Compound 18]	0	0	0	0	0	0	0	20	0	0	0	0	0	0	0	0	0	0	0	0	Plant response rating, Barnyardgrass ([11]; 125 g ai/ha): 0; Plant response rating, Barnyardgrass ([11]; 500 g ai/ha): 0; Plant response rating, Corn (corn (Zea mays); 125 g ai/ha): 0; Plant response rating, Corn (corn (Zea mays); 500 g ai/ha): 0; Plant response rating, Ryegrass, Italian ([12]; 125 g ai/ha): 0; Plant response rating, Ryegrass, Italian ([12]; 500 g ai/ha): 0; Plant response rating, Kochia (kochia (Kochia scoparia) [13]; 125 g ai/ha): 0; Plant response rating, Kochia (kochia (Kochia scoparia) [13]; 500 g ai/ha): 0; Plant response rating, Foxtail, Giant ([14]; 125 g ai/ha): 0; Plant response rating, Foxtail, Giant ([14]; 500 g ai/ha): 20; Plant response rating, Pigweed ([15]; 125 g ai/ha): 0; Plant response rating, Pigweed ([15]; 500 g ai/ha): 0
